# Source: patent US20050261264A1, “Rare-earth ternary complex” (priority 2000, published 2005)
# Tests used:
# Format in all cases: physicochemical
# [1] = Miscibility with solvents, visual evaluation at 5 wt %; design: key: ⊚: dissolves at room temperature; ◯: dissolves when heated for 5 minutes at 40° C.; Δ: dissolves under heating, but cooling precipitates crystals; X: does not dissolve; settings: complex added at 5 wt %
# Method: The miscibility of the rare earth complex with various media was evaluated as follows.
# 1) Miscibility with Solvents
# [2] = Miscibility with a polymer matrix, visual evaluation
# In short: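 Complex added to various polymer media at set concentrations and miscibility judged visually: dissolves up to 30 wt %, dissolves up to 5 wt %, disperses up to 5 wt % with turbidity, or repelled at polymer surface.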
# [3] = Number of moles of bound water per mole of complex (TG-DTA)
# In short: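 Bound water per mole of Eu(PMS)3(TPPO)8 complex derived from TG-DTA weight loss at 100° C. Crystals measured as recrystallized from water-methanol and again after vacuum drying 3 h at 140° C, […].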
# [4] = Luminescence quantum yield and luminescence intensity in solution; settings: acetonitrile solution
# Method: (§1) The intensity of luminescence and the luminescence quantum yield, the quotient of dividing the number of photons emitted from a sample by the number of photons absorbed into the sample, were measured with an SS-25 from JASCO Corporation.
# The luminescence quantum yield of an acetonitrile solution of the Eu(PMS)3(TPPO)8 obtained in Example 1 (europium ion concentration: 0.05 mol/L) was measured (excitation wavelength: 465 nm, maximum luminescence wavelength: 612 nm, luminescence wavelength used in measurement: 612 nm).
# The solutions prepared in Examples 12 to 14 and Comparative Examples 7 to 9 and Comparative Example B were measured for luminescence intensity at the respective maximum luminescence wavelengths.
# The relative luminescence intensity of the solutions used in Examples 12 to 14 and Comparative Example B: (luminescence intensity in each of Examples 12 to 14)/(luminescence intensity in Comparative Example 7) was calculated, letting 1 be the luminescence intensity in Comparative Example 7 (solution of a rare earth complex in which the ligand Z was not coordinated).
# Similarly, the relative luminescence intensity in Comparative Example 9: (luminescence intensity in Comparative Example 9)/(luminescence intensity in Comparative Example 8) was calculated, letting 1 be the luminescence intensity in Comparative Example 8 (solution of a known β-diketone-type of rare earth complex in which the ligand Z was not coordinated). The relative luminescence intensity of the solution used in Comparative Example B was 1.6 times.
# The luminescence quantum yield of an acetone-d6 solution of the Nd(PMS)3(TPPO)8 obtained in Example 2 (neodymium ion concentration: 0.05 mol/L) was measured (excitation wavelength: 585 nm, maximum luminescence wavelength: 1064 nm, luminescence wavelength used in measurement: 1064 nm).
# The solutions prepared in Examples 15 and 16 and Comparative Examples 10 were measured for luminescence intensity at the respective maximum luminescence wavelengths. The relative luminescence intensity in Examples 15 and 16: (luminescence intensity in each of Examples 15 and 16)/(luminescence intensity in Comparative Example 10) was calculated, letting 1 be the luminescence intensity in Comparative Example 10 (rare earth complex in which the ligand Z was not coordinated).
# [5] = Luminescence quantum yield and luminescence intensity in PMMA polymer matrix composition; settings: PMMA rod, Eu 0.7 wt %; relative to Eu(PMS)3 (Comparative Example 11) = 1
# Method: as §1
# A 1 mL quantity of refined anhydrous methyl methacrylate (MMA), 0.5 mg of AIBN, and 148 mg (0.7 wt %) as the rare earth ion concentration) of the Eu (PMS)3 (TPPO)8 obtained in Example 1 were mixed, the mixture was transferred to a Pyrex tube, and the inside of the tube was deaerated and then sealed. By reacting for 5 hours at 60° C., the polymerization of MMA was carried out. The resulting PMMA containing Eu(PMS)3 (TPPO)8 was taken out of the Pyrex tube, and a rod-shaped polymer matrix composition was obtained.
# (§2) The polymer matrix compositions prepared in Examples 17 to 19 and Comparative Example 11 were measured for luminescence intensity at the respective maximum luminescence wavelengths. The relative luminescence intensity in Examples 17 to 19: (luminescence intensity in each of Examples 17 to 19)/(luminescence intensity in Comparative Example 11) was calculated, letting 1 be the luminescence intensity in Comparative Example 11 (rare earth complex in which the ligand Z was not coordinated).
# A rod-shaped polymer matrix composition containing […] was obtained in the same manner as in Example 17, except that 148 mg (rare earth ion concentration: 0.7 wt %) of the Nd(PMS)3 (TPPO)8 obtained in Example 2 was used instead of Eu(PMS)3 (TPPO)8.
# as §2, with “20 and 21” for “17 to 19”, “12” for “11”, “20 and 21:” for “17 to 19:”, “20 and 21)/(luminescence” for “17 to 19)/(luminescence”, “12)” for “11)”
# [6] = Mechanoluminescence of polycarbonate film hit with a metal rod; settings: polycarbonate film about 6 μm thick, visual
# Method: The rare earth ternary complex of the present invention can be used as a mechanoluminescence material. The term mechanoluminescence as used here refers to a phenomenon whereby physical force (such as pressure, vibration energy or the like) imparted to the rare earth ternary complex is converted into optical energy, causing the complex to emit light.
# A 50 mg quantity of the Eu(PMS)3(Phen)m obtained in Example 8 and 450 mg of polycarbonate were dissolved in 3 mL of methylene chloride and then uniformly stirred to obtain a polymer solution. This polymer solution was then cast onto a glass plate, after which it was dried in vacuo overnight to remove the solvent, forming a polycarbonate film containing Eu(PMS)3(Phen)m, which is about 6 μm thick, on the glass plate.
# A polycarbonate film containing Eu(PMS)3, which is about 6 μm thick, was formed on a glass plate in the same manner as in Example 22, except that 42 mg of the Eu(PMS)3 prepared in Producing Example 1 was used instead of Eu(PMS)3 (Phen) m.
smiles,measurement,setting,value
O=S(=O)([N-]S(=O)(=O)C(F)(F)F)C(F)(F)F.O=S(=O)([N-]S(=O)(=O)C(F)(F)F)C(F)(F)F.O=S(=O)([N-]S(=O)(=O)C(F)(F)F)C(F)(F)F.[Eu+3].c1cnc2c(c1)ccc1cccnc12.c1cnc2c(c1)ccc1cccnc12.c1cnc2c(c1)ccc1cccnc12.c1cnc2c(c1)ccc1cccnc12 [Eu(PMS)3(Phen)m],"Miscibility, Acetone",[1],⊚
same,"Miscibility, Chloroform",[1],Δ
same,"Miscibility, Toluene",[1],Δ
same,"Miscibility, Water",[1],X
same,"Miscibility, Epoxy resin",[2],◯ (dissolves up to 5 wt %)
same,"Miscibility, Nafion",[2],◯ (dissolves up to 5 wt %)
same,"Miscibility, PMMA",[2],◯ (dissolves up to 5 wt %)
same,Bound water (number of moles of bound water per mole of complex),"[3]; Table 1, dried samples for the ternary complexes",0.00
same,Number of moles of bound water per mole of complex,[3]; after drying in vacuo at 140° C.,water had been completely removed
same,Number of moles of bound water per mole of complex,"[3]; before drying (crystals as obtained), weight reduction at 100° C.",3.06
same,Relative luminescence intensity,"[4]; Eu 0.05 mol/L, relative to Eu(PMS)3 (Comparative Example 7) = 1",49.5
same,Luminescence quantum yield,"[4]; europium ion 0.05 mol/L, excitation 465 nm, luminescence 612 nm",5.1%
same,Relative luminescence intensity,[5],5566
same,Light emission when film is hit with a metal rod (mechanoluminescence),[6],emits red light
